Experimental data from ChEMBL document CHEMBL4371019, “Sanguiin H-11 from Sanguisorbae radix protects HT22 murine hippocampal cells against glutamate-induced death” (2019).
Active and inactive are the calls of the source. No cut-off for these calls is given here.

Experiments:
[1] = tested on: HT-22; assay: Neuroprotective activity against glutamate-induced neuronal cell death in mouse HT22 cells assessed as increase in cell viability at 0.5 to 5 uM after 24 hrs by MTT assay; format: functional, cell-based
[2] = tested on: HT-22; assay: Neuroprotective activity against glutamate-induced neuronal cell death in mouse HT22 cells at 10 to 20 uM by microscopic analysis; format: functional, cell-based
[3] = tested on: HT-22; assay: Inhibition of glutamate-induced apoptosis in mouse HT22 cells assessed as apoptotic cells at 20 uM after 12 hrs by AlexaFluor 488-Annexin V/propidium iodide staining-based assay (reference value: 54%); format: functional; settings: HT-22, 12 h
[4] = Antioxidant activity assessed as DPPH free radical scavenging activity up to 15 uM incubated for 30 mins; format: functional
[5] = target: Mitogen-activated protein kinase 1 and 3 (ERK2 and ERK1) (Mus musculus) (UniProt P63085+Q63844); assay: Inhibition of glutamate-induced ERK1/2 phosphorylation in mouse HT22 cells at 10 to 20 after 8 hrs by Western blot analysis; format: cell-based
Sequence of Mitogen-activated protein kinase 1 and 3 (ERK2 and ERK1) (Mus musculus) (P63085 whole entry, looked up): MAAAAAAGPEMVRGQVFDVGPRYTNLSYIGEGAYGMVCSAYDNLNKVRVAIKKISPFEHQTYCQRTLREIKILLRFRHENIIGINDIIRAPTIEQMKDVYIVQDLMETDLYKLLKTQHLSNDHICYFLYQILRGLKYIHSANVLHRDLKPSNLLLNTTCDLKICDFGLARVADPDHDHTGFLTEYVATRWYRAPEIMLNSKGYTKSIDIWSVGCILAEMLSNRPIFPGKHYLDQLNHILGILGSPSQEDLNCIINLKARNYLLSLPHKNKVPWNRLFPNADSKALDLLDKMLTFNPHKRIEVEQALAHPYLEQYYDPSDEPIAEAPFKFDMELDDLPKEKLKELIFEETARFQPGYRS
Sequence of Mitogen-activated protein kinase 1 and 3 (ERK2 and ERK1) (Mus musculus) (Q63844 whole entry, looked up): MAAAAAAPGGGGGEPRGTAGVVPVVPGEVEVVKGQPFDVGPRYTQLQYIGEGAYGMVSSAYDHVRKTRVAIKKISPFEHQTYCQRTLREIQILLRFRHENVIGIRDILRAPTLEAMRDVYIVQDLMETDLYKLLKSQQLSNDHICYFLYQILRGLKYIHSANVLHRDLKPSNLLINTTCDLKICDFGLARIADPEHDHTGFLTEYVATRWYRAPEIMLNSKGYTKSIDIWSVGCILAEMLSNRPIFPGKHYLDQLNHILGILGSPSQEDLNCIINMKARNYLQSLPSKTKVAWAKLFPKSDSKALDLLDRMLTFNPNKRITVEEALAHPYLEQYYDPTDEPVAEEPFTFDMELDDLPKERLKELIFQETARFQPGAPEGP

[6] = organism: Mus musculus; assay: Inhibition of glutamate-induced JNK phosphorylation in mouse HT22 cells at 10 to 20 after 8 hrs by Western blot analysis; format: cell-based
[7] = tested on: HT-22; assay: Antioxidant activity in mouse HT22 cells assessed as reduction in glutamate-induced increase in intracellular reactive oxygen species level at 10 to 20 uM after 8 hrs by H2DCFDA staining based fluorescence microscopic analysis; format: functional, cell-based
[8] = tested on: HT-22; assay: Inhibition of glutamate-induced apoptosis in mouse HT22 cells assessed as apoptotic cells at 10 uM after 12 hrs by AlexaFluor 488-Annexin V/propidium iodide staining-based assay (reference value: 54%); format: functional; settings: HT-22, 12 h
[9] = target: MAP kinase p38 (Mus musculus) (UniProt P47811+O08911+Q9WUI1+Q9Z1B7); assay: Inhibition of glutamate-induced p38 MAPK phosphorylation in mouse HT22 cells at 10 to 20 after 8 hrs by Western blot analysis; format: cell-based
[10] = tested on: HT-22; assay: Neuroprotective activity against glutamate-induced neuronal cell death in mouse HT22 cells assessed as reduction in intracellular calcium level at 10 to 20 uM after 8 hrs by fluorescence microscopic analysis; format: functional, cell-based
[11] = tested on: HT-22; assay: Neuroprotective activity against glutamate-induced neuronal cell death in mouse HT22 cells assessed as increase in cell viability at 20 to 50 uM after 24 hrs by MTT assay; format: functional, cell-based

inhibition [5]	inhibition [9]	Compound	Activity [1]	Activity [2]	inhibition at 20 µM [3] [%]	Activity [4]	inhibition [6]	Activity [7]	inhibition at 10 µM [8] [%]	Activity [10]	Activity [11]
		CC(=O)N[C@@H](CS)C(=O)O	Active								
Active	Active	O=C(O[C@@H]1O[C@@H]2COC(=O)c3cc(O)c(O)c(O)c3-c3c(cc(O)c(O)c3O)C(=O)O[C@H]2[C@@H]2OC(=O)c3cc(O)c(O)c(O)c3-c3c(cc(O)c(O)c3O)C(=O)O[C@@H]12)c1cc(O)c(O)c(O)c1		Active	8.5	Active	Active	Active	12.7	Active	Active
